# Data from patent US20220089609A1, “SUBSTITUTED QUINAZOLINONE DERIVATIVES AND THEIR USE AS POSITIVE ALLOSTERIC MODULATORS OF MGLUR4” (DOMAIN THERAPEUTICS, priority 2018, published 2022).
# Counter-ions that a name gives are not always drawn.
# Assays:
# human mGluR4 (hmGluR4) = target: T1, human mGluR4 (hmGluR4) (Homo sapiens, UniProt Q14833); experiment: Calcium assay EC50 determination, positive allosteric modulator activity on hmGluR4 transiently over-expressed in HEK-293 cells; type: cell-based; conditions: PAM mode with EC20 glutamate; hmGluR4 in HEK-293 cells; intracellular calcium (Fluo4AM); read-out: mGluR4 positive allosteric modulator activity, half maximal effective concentration (EC50)
# T1 construct: expressed in transfected cells; host or cells: HEK-293 cells, transient co-transfection by electroporation
# Outline: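 HEK-293 cells transiently co-transfected with hmGluR4, chimeric G protein and glutamate transporters; Fluo4AM calcium read (ex 485/em 525 nm) on FLIPR Tetra. Compound alone 10 min for agonism, then EC20 glutamate with 3 min recording for PAM activity, versus buffer or EC20 glutamate basal.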
# T1 sequence (Q14833 33-912): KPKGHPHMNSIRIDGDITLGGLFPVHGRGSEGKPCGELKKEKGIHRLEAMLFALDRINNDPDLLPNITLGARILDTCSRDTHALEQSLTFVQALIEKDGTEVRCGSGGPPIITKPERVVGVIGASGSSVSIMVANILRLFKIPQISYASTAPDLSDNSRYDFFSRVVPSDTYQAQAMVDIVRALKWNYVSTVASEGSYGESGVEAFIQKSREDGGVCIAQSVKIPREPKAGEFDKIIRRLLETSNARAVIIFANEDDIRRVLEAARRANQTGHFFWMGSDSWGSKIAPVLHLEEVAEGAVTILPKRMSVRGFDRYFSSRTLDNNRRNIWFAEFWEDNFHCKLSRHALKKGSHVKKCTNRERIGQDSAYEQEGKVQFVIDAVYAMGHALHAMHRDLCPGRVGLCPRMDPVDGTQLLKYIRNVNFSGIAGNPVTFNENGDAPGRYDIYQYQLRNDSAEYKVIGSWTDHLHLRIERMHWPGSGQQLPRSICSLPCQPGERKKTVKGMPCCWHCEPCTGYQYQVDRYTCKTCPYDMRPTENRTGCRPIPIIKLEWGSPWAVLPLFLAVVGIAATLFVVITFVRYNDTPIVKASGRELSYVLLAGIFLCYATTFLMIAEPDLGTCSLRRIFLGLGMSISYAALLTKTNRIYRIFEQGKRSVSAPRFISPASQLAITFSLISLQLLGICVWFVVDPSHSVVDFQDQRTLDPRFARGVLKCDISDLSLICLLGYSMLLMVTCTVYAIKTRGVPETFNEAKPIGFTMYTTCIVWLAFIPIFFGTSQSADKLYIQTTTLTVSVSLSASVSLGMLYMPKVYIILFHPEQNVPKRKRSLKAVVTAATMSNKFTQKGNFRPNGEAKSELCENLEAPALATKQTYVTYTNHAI
melting point [°C],EC50 (human mGluR4 (hmGluR4)) [nM],SMILES
168 to 173,,Cc1cc(CCN2CCOCC2)nc2c(=O)[nH]c(-c3cc(C(F)(F)F)ccn3)nc12.Cl
> 250,,"Cc1cccc(-c2nc3ccc(OCCCc4ccncc4)cc3c(=O)[nH]2)n1 (as salt: hydrochloride) [Compound 12, 2-(6-methyl-2-pyridyl)-6-[3-(4-pyridyl)propoxy]-3H-quinazolin-4-one dihydrochloride]"
> 250,,"Cc1cnc(-c2nc3ccc(OCCCc4ccncc4)cc3c(=O)[nH]2)cn1 (as salt: hydrochloride) [Compound 13, 2-(5-methylpyrazin-2-yl)-6-[3-(4-pyridyl)propoxy]-3H-quinazolin-4-one dihydrochloride]"
232 to 241,,"O=c1[nH]c(-c2cc(Cl)ccn2)nc2ccc(OCCCc3ccncc3)cc12 (as salt: hydrochloride) [Compound 15, 2-(4-chloro-2-pyridyl)-6-[3-(4-pyridyl)propoxy]-3H-quinazolin-4-one hydrochloride]"
238 to 250,,"O=c1[nH]c(-c2cccc(C(F)(F)F)n2)nc2ccc(OCCCc3ccncc3)cc12 (as salt: hydrochloride) [Compound 17, 6-[3-(4-pyridyl)propoxy]-2-[6-(trifluoromethyl)-2-pyridyl]-3H-quinazolin-4-one hydrochloride]"
> 250,,"Cc1cc(CCN2CCOCC2)cc2c(=O)[nH]c(-c3cc(C(F)(F)F)ccn3)nc12 (as salt: hydrochloride) [Compound 117, 8-methyl-6-(2-morpholinoethyl)-2-[4-(trifluoromethyl)-2-pyridyl]-3H-quinazolin-4-one hydrochloride]"
> 250,,"Cc1cc(CCN2CCOCC2)cc2c(=O)[nH]c(-c3cc4cccn4cn3)nc12 (as salt: hydrochloride) [Compound 124, 8-Methyl-6-(2-morpholin-4-yl-ethyl)-2-pyrrolo[1,2-c]pyrimidin-3-yl-3H-quinazolin-4-one hydrochloride]"
205 to 215,,"COC1CCN(Cc2cc(C)c3nc(-c4cc5sccc5cn4)[nH]c(=O)c3c2)CC1 (as salt: hydrochloride) [Compound 152, 6-[(4-Methoxy-1-piperidyl)methyl]-8-methyl-2-thieno[3,2-c]pyridin-6-yl-3H-quinazolin-4-one hydrochloride]"
220 to 240,,"Cc1cc(CN2CCOC(C)(C)C2)cc2c(=O)[nH]c(-c3cc4sccc4cn3)nc12 (as salt: hydrochloride) [Compound 153, 6-[(2,2-Dimethylmorpholin-4-yl)methyl]-8-methyl-2-thieno[3,2-c]pyridin-6-yl-3H-quinazolin-4-one hydrochloride]"
,100 to 1000,"Cc1cc(O[C@H](C)C2CCOCC2)cc2c(=O)[nH]c(-c3cc(C(F)(F)F)ccn3)nc12 [Compound 111-R, R-8-Methyl-6-[1-(tetrahydro-pyran-4-yl)-ethoxy]-2-(4-trifluoromethyl-pyridin-2-yl)-3H-quinazolin-4-one]"
,≤ 100,"Cc1cc(CCN2CCOCC2)cc2c(=O)[nH]c(-c3cc(C(F)(F)F)ccn3)nc12 [Compound 117, 8-methyl-6-(2-morpholinoethyl)-2-[4-(trifluoromethyl)-2-pyridyl]-3H-quinazolin-4-one hydrochloride]"
,100 to 1000,"Cc1cc(CCN2CCCOCC2)cc2c(=O)[nH]c(-c3cnc4sccc4c3)nc12 [Compound 121, 8-Methyl-6-(2-[1,4]oxazepan-4-yl-ethyl)-2-thieno[2,3-b]pyridin-5-yl-3H-quinazolin-4-one hydrochloride]"
,1000 to 10000,"Cc1cc(CN2CCN(C)CC2)cc2c(=O)[nH]c(-c3cc4ccsc4cn3)nc12 [Compound 132, 8-Methyl-6-[(4-methylpiperazin-1-yl)methyl]-2-thieno[2,3-c]pyridin-5-yl-3H-quinazolin-4-one dihydrochloride]"
,≤ 100,"Cc1cc(O[C@@H]2CC(=O)N(C)C2)cc2c(=O)[nH]c(-c3cc4sccc4cn3)nc12 [Compound 140-R, 8-Methyl-6-[(3R)-1-methyl-5-oxo-pyrrolidin-3-yl]oxy-2-thieno[3,2-c]pyridin-6-yl-3H-quinazolin-4-one]"
,≤ 100,"Cc1cc(CN2CCN(C)C(=O)C2)cc2c(=O)[nH]c(-c3cc4sccc4cn3)nc12 [Compound 147, 8-Methyl-6-[(4-methyl-3-oxo-piperazin-1-yl)methyl]-2-thieno[3,2-c]pyridin-6-yl-3H-quinazolin-4-one hydrochloride]"
,≤ 100,"Cc1cc(CN2CCOC(C)(C)C2)cc2c(=O)[nH]c(-c3cc4sccc4cn3)nc12 [Compound 153, 6-[(2,2-Dimethylmorpholin-4-yl)methyl]-8-methyl-2-thieno[3,2-c]pyridin-6-yl-3H-quinazolin-4-one hydrochloride]"

# More lines, now with the values behind:
SMILES,melting point [°C],EC50 (human mGluR4 (hmGluR4)) [nM]
"O=c1[nH]c(-c2cc(C3CC3)ccn2)nc2ccc(OCCCc3ccncc3)cc12 (as salt: hydrochloride) [Compound 19, 2-(4-cyclopropyl-2-pyridyl)-6-[3-(4-pyridyl)propoxy]-3H-quinazolin-4-one dihydrochioride]",110 to 156,
"Cc1nc(-c2nc3ccc(OCCCc4ccncc4)cc3c(=O)[nH]2)co1 (as salt: hydrochloride) [Compound 22, 2-(2-Methyl-oxazol-4-yl)-6-(3-pyridin-4-yl-propoxy)-3H-quinazolin-4-one hydrochloride]",> 250,
"Cc1cc(CN2CCOCC2)cc2c(=O)[nH]c(-c3cc(C(F)(F)F)ccn3)nc12 (as salt: hydrochloride) [Compound 115, 8-methyl-6-(morpholinomethyl)-2-[4-(trifluoromethyl)-2-pyridyl]-3H-quinazolin-4-one hydrochloride]",> 250,
"Cc1cc(CN2CCN(C)CC2)cc2c(=O)[nH]c(-c3cc4ccsc4cn3)nc12 (as salt: hydrochloride) [Compound 132, 8-Methyl-6-[(4-methylpiperazin-1-yl)methyl]-2-thieno[2,3-c]pyridin-5-yl-3H-quinazolin-4-one dihydrochloride]",> 250,
"O=c1[nH]c(-c2cc(C(F)(F)F)ccn2)nc2c(Cl)cc(CCN3CCOCC3)cc12 (as salt: hydrochloride) [Compound 154, 8-Chloro-6-(2-morpholinoethyl)-2-(4-(trifluoromethyl)pyridin-2-yl)quinazolin-4(3H)-one hydrochloride]",> 250,
"Cc1cc(OC2CCN(C3COC3)CC2)cc2c(=O)[nH]c(-c3cc4cccn4cn3)nc12 [Compound 109, 8-methyl-6-(1-oxetan-3-yl-piperidin-4-yloxy)-2-pyrrolo[1,2-c]pyrimidin-3-yl-3H-quinazolin-4-one]",,≤ 100
"Cc1cc(O[C@H](C)C2CCOCC2)cc2c(=O)[nH]c(-c3cc4ccsc4cn3)nc12 [Compound 110-R, R-8-Methyl-6-[1-(tetrahydro-pyran-4-yl)-ethoxy]-2-thieno[2,3-c]pyridin-5-yl-3H-quinazolin-4-one]",,≤ 100
Cc1cc(N2CCC3(CCOCC3)CC2)nc2c(=O)[nH]c(-c3cc4ccsc4cn3)nc12 [Compound 113],,100 to 1000
"Cc1cc(CN2CCOCC2)cc2c(=O)[nH]c(-c3cc(C(F)(F)F)ccn3)nc12 [Compound 115, 8-methyl-6-(morpholinomethyl)-2-[4-(trifluoromethyl)-2-pyridyl]-3H-quinazolin-4-one hydrochloride]",,≤ 100
"Cc1cc(CCN2CCOCC2)cc2c(=O)[nH]c(-c3cc4cccn4cn3)nc12 [Compound 124, 8-Methyl-6-(2-morpholin-4-yl-ethyl)-2-pyrrolo[1,2-c]pyrimidin-3-yl-3H-quinazolin-4-one hydrochloride]",,≤ 100
"Cc1cc(CC(=O)N2CCOCC2)cc2c(=O)[nH]c(-c3cc4sccc4cn3)nc12 [Compound 126, 8-Methyl-6-(2-morpholino-2-oxoethyl)-2-(thieno[3,2-c]pyridin-6-yl)quinazolin-4(3H)-one]",,≤ 100
"Cc1cc(C(=O)N2CCOCC2)cc2c(=O)[nH]c(-c3cc4cccn4cn3)nc12 [Compound 135, 8-Methyl-6-(morpholine-4-carbonyl)-2-pyrrolo[1,2-c]pyrimidin-3-yl-3H-quinazolin-4-one]",,100 to 1000
"Cc1cc(O[C@H]2CC(=O)N(C)C2)cc2c(=O)[nH]c(-c3cc4sccc4cn3)nc12 [Compound 140-S, 8-Methyl-6-[(3S)-1-methyl-5-oxo-pyrrolidin-3-yl]oxy-2-thieno[3,2-c]pyridin-6-yl-3H-quinazolin-4-one]",,≤ 100
"COC1CCN(Cc2cc(C)c3nc(-c4cc5sccc5cn4)[nH]c(=O)c3c2)CC1 [Compound 152, 6-[(4-Methoxy-1-piperidyl)methyl]-8-methyl-2-thieno[3,2-c]pyridin-6-yl-3H-quinazolin-4-one hydrochloride]",,≤ 100
"O=c1[nH]c(-c2cc(C(F)(F)F)ccn2)nc2c(Cl)cc(CCN3CCOCC3)cc12 [Compound 154, 8-Chloro-6-(2-morpholinoethyl)-2-(4-(trifluoromethyl)pyridin-2-yl)quinazolin-4(3H)-one hydrochloride]",,100 to 1000
"Cc1cc(CN2CCC(C(=O)N(C)C)CC2)cc2c(=O)[nH]c(-c3cc4sccc4cn3)nc12 [Compound 156, N,N-Dimethyl-14(8-methyl-4-oxo-2-(thieno[3,2-c]pyridin-6-yl)-3,4-dihydroquinazolin-6-yl)methyl)piperidine-4-carboxamide hydrochloride]",,≤ 100
"COCC1CCN(Cc2cc(C)c3nc(-c4cc5sccc5cn4)[nH]c(=O)c3c2)CC1 [Compound 157, 6-((4-(Methoxymethyl)piperidin-1-yl)methyl)-8-methyl-2-(thieno[3,2-c]pyridin-6-yl)quinazolin-4(3H)-one hydrochloride]",,100 to 1000
